Source: article PMC8068036, “Synthesis of New Biscoumarin Derivatives, In Vitro Cholinesterase Inhibition, Molecular Modelling and Antiproliferative Effect in A549 Human Lung Carcinoma Cells” (International Journal of Molecular Sciences, 2021)
Like-named read-outs stand apart in the source and are kept apart here.

Assays:
in vitro = conditions: for CNS Predicted Availability: classification from PAMPA-BBB Pe; for Papp: PAMPA; for Papp / Pe ± S.E.M.: pH 7.4; for Pe ± S.E.M.: PAMPA-BBB
Experimental: The parallel artificial membrane permeability assay (PAMPA) is used as a non-cell-based in vitro assay to predict BBB penetration and is carried out in a coated 96-well membrane filter. In our assays, the filter membrane of the donor plate was coated with PBL (Polar Brain Lipid, Avanti, Denver, CO, USA) in dodecane (4 µL of 20 mg mL^−1 PBL in dodecane), and the acceptor well was filled with 300 µL of phosphate buffered saline (PBS) (pH 7.4; VA). The tested compounds were first dissolved in DMSO, and the resulting mixture was diluted with PBS (pH 7.4) to reach the final concentration (40–100 µM) in the donor well. […] Three hundred microliters of the donor solution (VD) were added to the donor wells, and the donor filter plate was carefully placed onto the acceptor plate to ensure that the coated membrane was “in contact” with both the donor solution and the acceptor buffer. The test compound diffused from the donor well through the polar brain lipid membrane (area = 0.28 cm^2) to the acceptor well. The concentration of the tested compound in both the donor and acceptor wells was assessed after 3, 4, 5, and 6 h of incubation, respectively, in quadruplicate using a UV plate reader Synergy HT (Biotek, Winooski, VT, USA) at the maximum absorption wavelength of each compound. Additionally, solutions at the theoretical equilibrium of the given compound (i.e., the theoretical concentration if the donor and acceptor compartment were simply combined) were also prepared.

hBChE (human plasma) = biological target: T1, hBChE (human plasma) (Homo sapiens, UniProt P06276); test: biochemical; assay type: biochemical; conditions: human plasma BChE, mean of at least three experiments; for IC50: read-out: IC50 ± S.E.M. hBChE
T1 construct: Human plasma was used as a source of BChE; from tissue; host or cells: human plasma from heparinized blood
Experimental: (§1) Human recombinant AChE (EC 3.1.1.7), 5,5′-dithiobis(2-nitrobenzoic acid) (Ellman′s reagent, DTNB), phosphate buffer (PB, 0.1 M, pH 7.4), and acetylthiocholine (ATC) and butyrylthiocholine (BTC), were purchased from Sigma-Aldrich, Prague, Czech Republic. Human plasma was used as a source of BChE and was prepared from heparinized human blood. The blood was centrifuged for 20 min (4 °C, 2300× g) on a Hettich Universal 320R centrifuge. The plasma was separated and stored at […]. Polystyrene Nunc 96-well microplates with a flat bottom shape (ThermoFisher Scientific, Waltham, MA, USA) were used for measuring purposes.
(§2) All of the assays were carried out in a 0.1 M phosphate buffer, pH 7.4. The assay medium (100 µL) consisted of 40 µL of 0.1 M phosphate buffer (pH 7.4), 20 µL of 0.01 M DTNB, 10 µL of the enzyme, and 20 µL of 0.01 M substrate ATC/BTC iodide solution).
(§3) The tested compounds were preincubated for 5 min prior to use. The reaction was initiated immediately upon addition of 20 µL of the substrate. […] Each concentration was assayed in triplicate. Software GraphPad Prism 5 (San Diego, CA, USA) was used in the evaluation of the statistical data.

human recombinant AChE = biological target: T2, human recombinant AChE (Homo sapiens, UniProt P22303); test: biochemical; assay type: biochemical; conditions: mean of at least three experiments; for IC50: read-out: IC50 ± S.E.M. hAChE
T2 construct: purchased Sigma-Aldrich, Prague, Czech Republic
Experimental: as §1, §2, §3

A549 cells [1] = test: MTT assay, A549; assay type: cell-based, human; conditions: for Metabolic activity of A549 cells (in words): 10 to 100 μM, 24 and 48 h; for IC50: Homo sapiens
Experimental: (§4) Human lung carcinoma cell line A549 and CCD-18Co colon fibroblasts were purchased from the American Type Culture Collection (ATCC, Rockville, MD, USA). The A549 cells were cultured in a complete RPMI-1640 medium (Sigma-Aldrich, St. Louis, MO, USA), and CCD-18Co cells were cultured in an MEM medium (PAN-Biotech GmbH, Aidenbach, Germany). The media were supplemented with 10% fetal bovine serum (FBS; Biosera, Nuaille, France) and antibiotics (1% Antibiotic-Antimycotic 100× and 50 × 10^−3 g l^−1 gentamicin; Biosera) at 37 °C, 95% humidity, and 5% CO2.
(§5) Prior to the selected treatments, cells were seeded on 12-well μ-Chamber slides (ibidi GmbH, Martinsried, Germany) and 6 and/or 96-well plates (TPP, Trasadingen, Switzerland) and left to settle for 24 h. The biscoumarin derivative solutions (at concentrations ranging from 10–100 µM) were then added to cells for 24 or 48 h, and analysis was subsequently performed.
(§6) MTT assays were performed in order to evaluate changes in the metabolic activity of cells that had occurred as a consequence of treatment with the biscoumarin derivatives. A549 cells (15 × 10^3 cells/cm^2) and CCD-18Co ([…]) were seeded in 96-well microplates. The cells were treated for 24 and 48 h with different concentrations (10, 25, 35, 50, 65, 75, and 100 µM) of the derivatives. After the treatment, the MTT (3-(4,5-dimethylthiazol-2-yl)-2,5-diphenyltertrazolium bromide) solution in PBS (5 mg mL^−1) was added to each well. […]. The absorbance of formazan (λ = 584 nm) was measured using a BMG FLUOstar Optima spectrometer (BMG Labtech GmbH, Offenburg, Germany). The results were evaluated as percentages of the absorbance of the untreated control. Results are presented as the average percentage of cells from three independent experiments. IC50 values for the derivatives were extrapolated from a sigmoidal fit (dose–response curve) to the metabolic activity data using OriginPro 8.5.0 SR1 (OriginLab Corp., Northampton, MA, USA).

CCD-18Co fibroblasts = test: MTT assay, CCD-18Co; assay type: cell-based; conditions: for IC50: Homo sapiens, CCD-18Co
Experimental: as §4, §5, §6

A549 cells [2] = test: Cell cycle analysis (flow cytometry, PI); assay type: cell-based, human; conditions: 35 and 65 µM, 24 h
Experimental: For flow cytometric analysis of the cell cycle distribution, floating and adherent cells were harvested together 24 h after treatment with the derivatives (35 and 65 µM), washed in cold PBS, fixed in cold 70% ethanol, and stored overnight at −20 °C. Prior to analysis, the cells were washed twice in PBS, resuspended in a staining solution (0.1% Triton X-100, 0.137 g L^−1 ribonuclease A and 0.02 g L^−1 propidium iodide—PI), and incubated in dark conditions at RT for 30 min. The DNA content was analyzed using a BD FACSCalibur flow cytometer (Becton Dickinson, San Jose, CA, USA) with a 488 nm argon-ion excitation laser, and fluorescence was detected using a 585/42 nm band-pass filter (FL-2). ModFit 3.0 software (Verity Software House, Topsham, ME, USA) was used to generate DNA content frequency histograms and to quantify the percentage of cells in the individual cell cycle phases. The results are presented as the average ratio of cells in the individual phase to all cells from three independent experiments.

[3] = A549, 24 h, read-out: IC50 A549 24 h
[4] = A549, read-out: IC50 A549 48 h, 48 h

T2 sequence (P22303 32-614): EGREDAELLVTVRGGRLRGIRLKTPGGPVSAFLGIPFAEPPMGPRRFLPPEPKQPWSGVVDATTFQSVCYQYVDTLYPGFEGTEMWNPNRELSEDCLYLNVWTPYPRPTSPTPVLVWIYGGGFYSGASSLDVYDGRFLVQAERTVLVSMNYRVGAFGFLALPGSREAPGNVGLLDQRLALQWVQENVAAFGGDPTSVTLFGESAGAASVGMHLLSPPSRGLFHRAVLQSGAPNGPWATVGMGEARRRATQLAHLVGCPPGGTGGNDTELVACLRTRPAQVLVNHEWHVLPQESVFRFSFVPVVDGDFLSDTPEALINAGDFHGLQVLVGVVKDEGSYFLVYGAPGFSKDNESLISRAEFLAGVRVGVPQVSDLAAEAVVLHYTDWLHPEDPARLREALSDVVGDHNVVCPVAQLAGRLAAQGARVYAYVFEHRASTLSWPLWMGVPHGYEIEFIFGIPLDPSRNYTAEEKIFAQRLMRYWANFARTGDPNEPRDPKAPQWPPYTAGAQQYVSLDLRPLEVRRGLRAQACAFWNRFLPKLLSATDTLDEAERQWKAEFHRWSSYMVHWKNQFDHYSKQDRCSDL
T1 sequence (P06276 29-602): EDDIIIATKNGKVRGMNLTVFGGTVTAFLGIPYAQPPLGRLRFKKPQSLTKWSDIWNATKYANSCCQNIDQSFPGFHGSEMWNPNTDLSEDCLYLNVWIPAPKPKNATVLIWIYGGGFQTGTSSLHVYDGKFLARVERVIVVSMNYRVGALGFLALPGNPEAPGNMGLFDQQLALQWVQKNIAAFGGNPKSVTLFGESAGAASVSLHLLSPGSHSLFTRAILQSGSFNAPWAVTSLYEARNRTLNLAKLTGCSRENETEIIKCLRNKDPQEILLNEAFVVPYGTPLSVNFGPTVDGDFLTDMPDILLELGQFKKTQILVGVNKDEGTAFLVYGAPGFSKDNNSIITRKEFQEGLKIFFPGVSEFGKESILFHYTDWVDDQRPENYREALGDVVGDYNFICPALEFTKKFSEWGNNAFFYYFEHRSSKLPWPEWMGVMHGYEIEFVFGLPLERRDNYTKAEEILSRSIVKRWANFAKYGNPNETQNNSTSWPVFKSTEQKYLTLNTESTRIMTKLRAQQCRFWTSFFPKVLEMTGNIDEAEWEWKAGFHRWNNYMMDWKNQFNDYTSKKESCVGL

Compound	CNS Predicted Availability (in vitro)	IC50 (hBChE (human plasma)) [µM]	IC50 (human recombinant AChE) [µM]	Papp (in vitro) [×10⁻⁶ cm/s]	Pe ± S.E.M. (in vitro)	Metabolic activity of A549 cells (in words) (A549 cells [1])	IC50 (A549 cells [1]; [3]) [µM]	IC50 (A549 cells [1]; [4]) [µM]	Metabolic activity of CCD-18Co cells (in words) (CCD-18Co fibroblasts; 24 or 48 h)	IC50 (CCD-18Co fibroblasts; 24 h, read-out: IC50 CCD-18Co 24 h) [µM]	IC50 (CCD-18Co fibroblasts; read-out: IC50 CCD-18Co 48 h, 48 h) [µM]	IC50 (CCD-18Co fibroblasts; time not stated, read-out: IC50 CCD-18Co) [µM]	Cell cycle distribution, G0/G1 phase (in words) (A549 cells [2])	IC50 ± S.E.M. hBChE (hBChE (human plasma))	IC50 ± S.E.M. hAChE (human recombinant AChE)
CNC(=C[N+](=O)[O-])NCCSCc1ccc(CN(C)C)o1 [Ranitidine, reference compound]	CNS− (CNS−: low BBB permeation predicted with Pe (×10^−6 cm s^−1) < 2.0)														
COC(=O)Cc1cc(=O)oc2cc(OCCCCCCCN3CCN(CCNC(=O)Cc4cc(=O)oc5cc(O)ccc45)CC3)ccc12 [12d]	CNS+/− (CNS +/−: BBB permeation uncertain with Pe (×10^−6 cm s^−1) from 4.0 to 2)	49	6.3 ± 0.4	2.11 ± 1.19	2.0–4.0 10^−6 cm s^−1	significant decrease	94	58	significantly reduced metabolic activity only at a concentration of 100 μM	> 100	> 100	> 100	increase in the percentage of the cell population in the G0/G1 phase		
COC(=O)Cc1cc(=O)oc2cc(OCCCCN3CCN(CCNC(=O)Cc4cc(=O)oc5cc(O)ccc45)CC3)ccc12 [12b]	CNS− (CNS−: low BBB permeation predicted with Pe (×10^−6 cm s^−1) < 2.0)	> 500	> 500			did not lose the ability to convert dye	> 100	> 100						did not show inhibitory activity	did not show inhibitory activity
Nc1c2c(nc3ccccc13)CCCC2 [Tacrine, tacrine, reference compound]	CNS+ (CNS+: high BBB permeation predicted with Pe (×10^−6 cm s^−1) > 4.0)														
COC(=O)Cc1cc(=O)oc2cc(OCCCCCCN3CCN(CCNC(=O)Cc4cc(=O)oc5cc(O)ccc45)CC3)ccc12 [12c, Methyl 2-[7-({7-[4-(2-{[2-(7-hydroxy-2-oxo-2H-4-chromenyl)acetyl]amino}ethyl)piperazino]hexyl}oxy)-2-oxo-2H-4-chromenyl]acetate]	CNS+/− (CNS +/−: BBB permeation uncertain with Pe (×10^−6 cm s^−1) from 4.0 to 2)	> 500	88.4 ± 12.6	2.96 ± 0.73	2.0–4.0 10^−6 cm s^−1	did not lose the ability to convert dye	> 100	> 100					increased the accumulation of cell population in the G0/G1 phase		
